Laboratory results reported in patent US7235548B2, “Compounds and their use as positive AMPA receptor modulators” (NeuroSearch A/S, priority 1998, dated 2007).

Biological target: ionotropic quisqualate (AMPA) receptors
Assay: In vitro inhibition of 3H-AMPA binding
Details: 5 nM 3H-AMPA, rat cerebral cortex membranes, 30 min at 2° C.; read-out: IC50 (concentration of the test substance which inhibits the specific binding of 3H-AMPA by 50%)
Description: L-glutamate (GLU) is the major excitatory neurotransmitter in the mammalian central nervous system. From electrophysiological- and binding studies, there appear to be at least three subtypes of GLU receptors, tentatively named N-methyl-D-aspartate (NMDA)-, quisqualate- and kainate receptors. GLU receptor subtypes sensitive to quisqualate and kainate as a group are often referred to as non-NMDA receptors. Receptor binding studies using the labelled agonists ^3H-AMPA (α-amino-3-hydroxy-5-methyl-4-isoxazolepropionic acid) (for quisqualate receptors) and ^3H-kainate (for kainate receptors) have shown different antagonist selectivities and regional distribution. AMPA has been known for several years to be a potent and selective agonist at the traditionally named quisqualate receptors. Activation of quisqualate receptors by AMPA is associated with Na^+ influx and K^+ efflux leading to depolarization.
The non-NMDA receptors have recently been reclassified to include the quisqualate activated metabotropic receptor type, linked to the inositol triphosphate and diacylglycerate metabolism. […] Selective activation of the metabotropic type has been claimed for trans-ACPD. Recently, the potent and competitive non-NMDA receptor antagonists CNQX and NBQX have been described, and CNQX have been reported not to block the effect of quisqualate at the metabotropic receptor subtype. ^3H-AMPA is a selective radioligand for labelling the ionotropic quisqualate (AMPA) receptors.
Preparations are performed at 0–4° C. unless otherwise indicated. Cerebral cortex from male Wistar rats (150–200 g) is homogenized for 5–10 sec in 20 ml Tris-HCl (30 mM, pH 7.4) using an Ultra-Turrax homogenizer. The suspension is centrifuged at 27,000×g for 15 min and the pellet is washed three times with buffer (centrifuged at 27,000×g for 10 min). The washed pellet is homogenized in 20 ml of buffer and incubated on a water bath (37° C.) for 30 min to remove endogenous glutamate and then centrifuged for 10 min at 27,000×g. The pellet is then homogenized in buffer and centrifuged at for 10 min at 27,000×g. The final pellet is resuspended in 30 ml buffer and the preparation is frozen and stored at −20° C.
The membrane preparation is thawed and centrifuged at 2° C. for 10 min at 27,000×g for 10 min. The pellet is washed twice with 20 ml 30 mM Tris-HCl containing 2.5 mM CaCl2, pH 7.4 using an Ultra-Turrax homogenizer and centrifuged for 10 min at 27,000×g. The final pellet is resuspended in 30 mM Tris-HCl containing 2.5 mM CaCl2 and 100 mM KSCN, pH 7.4 (100 ml per g of original tissue) and used for binding assays. Aliquots of 0.5 (0.2) ml are added to 25 (20) μl of test solution and 25(20) μl of ^3H-AMPA (5 nM, final concentration), mixed and incubated for 30 min at 2° C. Non-specific binding is determined using L-glutamate (0.6 mM, final concentration). After incubation the 550 μl samples are added 5 ml of ice-cold buffer and poured directly onto Whatman GF/C glass fibre filters under suction and immediately washed with 5 ml of ice-cold buffer. The 240 μl samples are filtered over glass fibre filter using a Skatron cell harvrester. The filters are washed with 3 ml ice-cold buffer. The amount of radioactivity on the filters is determined by conventional liquid scintillation counting. Specific binding is total binding minus non-specific binding.
The test value will be given as the IC50 (the concentration (μM) of the test substance which inhibits the specific binding of ^3H-AMPA by 50%)

IC50 [µM] | Structure (SMILES)
3.5 | NS(=O)(=O)c1ccc2c(c1)S(=O)(=O)NC(C1CCCCC1)N2 (stereo not drawn) [Compound 44, 3-Cyclohexyl-7-sulfamoyl-1,2,3,4-tetrahydro-1,2,4-benzothiadiazine-1,1-dioxide]
17 | O=S1(=O)NC(C2CCCCC2)Nc2ccc(S(=O)(=O)N3CCCC3)cc21 (stereo not drawn) [Compound 49, 3-Cyclohexyl-7-pyrrolidinosulfonyl-1,2,3,4-tetrahydro-1,2,4-benzothiadiazine-1,1-dioxide]
39 | NC(=O)c1ccc2c(c1)S(=O)(=O)NC(C1CCCCC1)N2 (stereo not drawn) [Compound 15, 3-Cyclohexyl-7-carbamoyl-1,2,3,4-tetrahydro-1,2,4-benzothiadiazine-1,1-dioxide]
5.3 | CN(C)S(=O)(=O)c1ccc2c(c1)S(=O)(=O)NC(C1CCCCC1)N2 (stereo not drawn) [Compound 47, 3-Cyclohexyl-7-dimethylaminosulfonyl-1,2,3,4-tetrahydro-1,2,4-benzothiadiazine-1,1-dioxide]
45 | CC(=NO)c1ccc2c(c1)S(=O)(=O)NC(C1CCCCC1)N2 (stereo not drawn) [Compound 14, 3-Cyclohexyl-7-(1-hydroxyiminoethyl)-1,2,3,4-tetrahydro-1,2,4-benzothiadiazine-1,1-dioxide]

System: AMPA receptors
Assay: AMPA evoked single neuron spike activity in rat hippocampus (iontophoretic application of AMPA), in vivo
Details: 10 mg kg^−1 i.v., rat hippocampus
Description: Evaluation of the in vivo effects of positive AMPA modulators (PAMs) on the AMPA evoked spike activity in rat hippocampus. Hippocampal single neuron spike activity is strongly influenced by excitatory input, and iontophoretic application of AMPA induces spike activity in vivo in a dose-dependent manner ([…] et al. 1998). […] PAMs potentate AMPA receptor activation in vitro, and if this mechanism also operates in vivo, the i.v. injection of an PAM should enhance AMPA evoked spike activity. Thus, the aim of this study was to test the in vivo effect of a group of in vitro active PAMs. This have been done by studying their ability to enhances AMPA evoked spike activity after i.v. administration. Experiments were performed on male Wistar rats (M & B, Denmark) weighing 280-380 g, housed in two per cage with free access to food and water. […] Additional anaesthetic was given i.v. if the rat responded to a pinch of the back foot. The trachea was cannulated and the rats were placed in a stereotaxic frame and ventilated by a rodent ventilator (Ugo Basile, Comerio-Varese, Italy). Core body temperature was maintained at 37.5° C. by a DC heating pad. The left and dorsal part of the parietal bone was removed by craniotomy and the dura was withdrawn exposing the pia mater and underlying brain, covered with 0.9% NaCl. AMPA (Sigma, USA) was dissolved at 10 mM in 0.2 M NaCl. NMDA (Sigma, USA) was dissolved at 100 mM in 100 mM NaCl. Both solutions were adjusted to pH 7.5-8.0 with NaOH. COMPOUND 61 was dissolved in 200 mM CH3SO3^- Na^+ at a contration of 10 mM for iontophoretic application ([…]) and in isotonic glucose (278 mM) for i.v. administration. Cyclothiazide, COMPOUND 63, COMPOUND 56, COMPOUND 115 and COMPOUND 114 were all dissolved at in 5% chremophore solution at a concentration of 5 mg ml^-1. Evoked neuronal spike activity was analyzed on-line by a computer, saving single spikes and time of event. Neuronal spike activity (number of action potentials s^-1) was monitored on a pulse rate histogram together with indicators for AMPA, COMPOUND 61 and vehicle application. Extracellular recordings of single hippocampal neuron spikes were made with five-barrel glass microelectrodes (5B120F-6, World Precision Instruments Inc., Sarasota, Fla., USA) with a tip diameter of 10-12 μm. The individual barrels were filled with 5 M NaCl (recording), 400 mM NaCl (current balancing), 10 mM COMPOUND 61 in 200 mM CH3SO3^- Na^+ (pH 4.7), 200 mM CH3SO3^- Na^+ (pH 4.7, Vehicle), and the last barrel was filled with the AMPA. Experiments were performed on hippocampal neurons (A=5.5-6.5 mm, L=1.5-2.0 mm, H=2.0-3.0 mm, according to Paxinos & Watson, 1986). Neuronal spike activity was evoked by iontophoretic application of AMPA for periods of 10 to 15 s with 1.5 min intervals. Single neuron spike activity was amplified 5000 times with a bandwidth of 0.3 and 3 kHz (CyberAmp 320 with a Al 402 x50 smartprobe, Axon Instruments, California, USA). On-line and off-line analyses were performed by the Spike2 program with a 1401 plus interface (Cambridge Electronic Design Limited, England). The computer program also recorded mean arterial blood pressure and monitored and controlled iontophoretic application. AMPA was ejected into hippocampus in regular cycles of 100-105 s. […] Recording of neuronal spike activity was continued for at least 45 min after intravenous injection. The PAM reactivity was tested by microiontophoretic application of COMPOUND 61 (20 nA, FIG.).

Structure (SMILES) | AMPA evoked spike activity
NS(=O)(=O)c1cc2c(cc1Cl)NC(C1CC3C=CC1C3)NS2(=O)=O (stereo not drawn) [cyclothiazide, reference compound] | did not enhance

System: not given
Assay: not given
Details: not given

melting point [°C] | Structure (SMILES)
243 to 245 | CN1C(C2CCCCC2)Nc2ccc(S(=O)(=O)N3CCOCC3)cc2S1(=O)=O (stereo not drawn) [Compound 85, 3-Cyclohexyl-2-methyl-7-morpholinosulfonyl-1,2,3,4-tetrahydro-1,2,4-benzothiadiazine-1,1-dioxide]
290 to 300 | CN(C)S(=O)(=O)c1ccccc1-c1ccc2c(c1)S(=O)(=O)NC(C1CCCCC1)N2 (stereo not drawn) [Compound 24, 3-Cyclohexyl-7-(2′-(N,N-dimethylsulfamoyl)phenyl)-1,2,3,4-tetrahydro-1,2,4-benzothiadiazine-1,1-dioxide]
124 to 126 | CC1NC(=O)c2ccccc2O1 (stereo not drawn) [Compound 3, 2-Methyl-3,4-dihydro-1,3-benzoxazine-4-one]
207 to 210 | CN1c2ccc(S(=O)(=O)N3CCOCC3)cc2S(=O)(=O)NC1C1CCCCC1 (stereo not drawn) [Compound 86, 3-Cyclohexyl-4-methyl-7-morpholinosulfonyl-1,2,3,4-tetrahydro-1,2,4-benzothiadiazine-1,1-dioxide]
258 to 260 | O=S1(=O)NC(C2CCCC2)Nc2ccc(S(=O)(=O)N3CCCCC3)cc21 (stereo not drawn) [Compound 55, 3-Cyclopentyl-7-piperidinosulfonyl-1,2,3,4-tetrahydro-1,2,4-benzothiadiazine-1,1-dioxide]
268 to 270 | O=S1(=O)NC(C2CCCCC2)Nc2ccc3c(c21)OCCO3 (stereo not drawn) [Compound 122, 3-Cyclohexyl-7,8-ethylenedioxy-1,2,3,4-tetrahydro-1,2,4-benzothiadiazine-1,1-dioxide]
196 to 200 | O=S1(=O)NC(C2CCCCC2)Nc2cc3c(cc21)OCCO3 (stereo not drawn) [Compound 118, 3-cyclohexyl-6,7-ethylenedioxy-1,2,3,4-tetrahydro-1,2,4-benzothiadiazine-1,1-dioxide]
157 to 160 | O=C1NC(c2ccccc2)Oc2ccccc21 (stereo not drawn) [Compound 4, 2-Phenyl-3,4-dihydro-1,3-benzoxazine-4-one]
255 to 258 | CS(=O)(=O)Nc1ccc2c(c1)S(=O)(=O)NC(C1CCCCC1)N2 (stereo not drawn) [Compound 39, 3-Cyclohexyl-7-methylsulfonylamino-1,2,3,4-tetrahydro-1,2,4-benzothiadiazine-1,1-dioxide]
255 to 257 | COc1cc(C(F)(F)F)ccc1-c1ccc2c(c1)S(=O)(=O)NC(C1CCCCC1)N2 (stereo not drawn) [Compound 22, 3-Cyclohexyl-7-(2′-methoxy-4′-trifluoromethylphenyl)-1,2,3,4-tetrahydro-1,2,4-benzothiadiazine-1,1-dioxide]
209 to 211 | O=[N+]([O-])c1ccc2c(c1)S(=O)(=O)NC(C1CCCCC1)N2 (stereo not drawn) [Compound 40, 3-Cyclohexyl-7-nitro-1,2,3,4-tetrahydro-1,2,4-benzothiadiazine-1,1-dioxide]
238 to 246 | O=S1(=O)NC(C2CCCCC2)Nc2ccc(-c3cccc(O)c3)cc21 (stereo not drawn) [Compound 27, 3-Cyclohexyl-7-(3′-hydroxyphenyl)-1,2,3,4-tetrahydro-1,2,4-benzothiadiazine-1,1-dioxide]
245 to 249 | CC(=O)Nc1ccccc1-c1ccc2c(c1)S(=O)(=O)NC(C1CCCCC1)N2 (stereo not drawn) [Compound 19, 3-Cyclohexyl-7-(2′-acetamidophenyl)-1,2,3,4-tetrahydro-1,2,4-benzothiadiazine-1,1-dioxide]
254 to 258 | NS(=O)(=O)c1cc(Br)c2c(c1)S(=O)(=O)NC(C1CCCCC1)N2 (stereo not drawn) [Compound 101, 5-Bromo-3-cyclohexyl-7-sulfamoyl-1,2,3,4-tetrahydro-1,2,4-benzothiadiazine-1,1-dioxide]
76 to 78 | CCC1(C)NC(=O)c2ccccc2O1 (stereo not drawn) [Compound 8, 2-Ethyl-2-methyl-3,4-dihydro-1,3-benzoxazine-4-one]
